In US5756510A, “Benzamide analogs useful as PARP (ADP-ribosyltransferase, ADPRT) DNA repair enzyme inhibitors” (Newcastle University Ventures Limited, priority 1994, dated 1998):
Like-named read-outs stand apart in the source and are kept apart here.

Target: T1, PARP (Mus musculus, UniProt P11103)
T1 construct: endogenous in cells; host or cells: L1210 murine leukaemia cells, permeabilised by hypotonic buffer and cold shock
Assay: PARP inhibition assay ([32P]-NAD incorporation into TCA-precipitated poly(ADP-ribose) in permeabilised L1210 cells, oligonucleotide activated)
Type: biochemical, L1210 murine leukaemia cells
Source text: In principle, the PARP assay used relies upon activating endogenous PARP (as hereinafter described) in cells containing exogenous [^32 P]-NAD^+ introduced therein by suspending the cells in a solution of [^32 P]-NAD^+ to which they have been rendered permeable in an initial pretreatment step. The poly(ADP-ribose) which is then synthesised by the enzyme can be precipitated by trichloracetic acid (TCA) and the amount of radio-labelled ^32 p incorporated therein measured, e.g. using a scintillation counter, to give a measure of the activity of the PARP under the particular conditions of the experiment. By repeating the experiment following the same procedure, and under the same conditions, in the presence of each compound to be tested the reduction in enzyme activity, representative of the inhibitory effect of the test compound, can then be ascertained from the reduction, if any, of the amount of [^32 P] measured in the TCA precipitated poly(ADP-ribose).
Thus, with a range of different compounds a set of comparative values for inhibitory activity can be obtained.
In practice, L1210 murine leukaemia cells were used as the source of the PARP enzyme after being rendered permeable to exogenous [^32 P]NAD by exposure to hypotonic buffer and cold shock. […] This oligonucleotide sequence snaps back on itself to form a double-stranded molecule with a single blunt end and provides an effective substrate for activation of PARP.
The experimental protocol adopted, in which a synthetic oligonucleotide as mentioned above is introduced as a specific activator of PARP, discriminates between PARP and other mono-ADP-ribosyltransferases in the cells.
The oligonucleotide having the palindromic sequence […], synthesised by conventional means, was vacuum dried and stored as pellets in a freezer. Before use, it was made up to 200 μg/ml in 10 mM Tris/HCl, pH 7.8, with each pellet being dissolved completely in […] of buffer. The solution was then heated to 60° C. in a water bath for 15 minutes, and allowed to cool slowly to ensure correct reannealing. After adding 9.5 ml of buffer, the concentration was checked by measuring the optical density of a diluted sample at 260 nm. The main solution was then diluted to a concentration of 200 μg/ml and stored in 500 μl aliquots in a freezer, ready for use.
The L1210 cells used as the source of the PARP enzyme were maintained as a suspension culture in RPMI medium+10% foetal bovine serum+glutamine and antibiotics (penicillin and streptomycin). HEPES and sodium bicarbonate were also added, and the cells were seeded in 100 ml of medium such that there would be a concentration of approximately 8×10^5 /ml at the time of carrying out an assay.
The solubility of the compound was then checked by adding a quantity of the DMSO solution to a quantity of the isotonic buffer, in the required final proportions that were to be used in carrying out the assay, and after an interval the solution was examined under a microscope for any signs of crystals forming.
A desired quantity of the cells, ascertained by counting with a haemocytometer, was then centrifuged (1500 rpm in a "Europa" model 24M centrifuge for 5 minutes), the supernatant removed, and the pellets obtained were resuspended in 20 ml Dul A at 4° C. before centrifuging again at 1500 rpm and 4° C. After again removing the supernatant, the cells were resuspended at a concentration of 3×10^7 cells/ml in ice cold hypotonic buffer and left for 30 minutes on ice. Nine volumes were then added of ice cold isotonic buffer, and the cells, now rendered permeable to exogenous NAD^+, were then used within the next hour for carrying out an assay.

[1] = 10 μM, read-out: % Inhibition (PARP)
[2] = 30 μM, read-out: % Inhibition (PARP)
[3] = unit printed broken, attached to the next cell

T1 sequence (P11103 whole entry): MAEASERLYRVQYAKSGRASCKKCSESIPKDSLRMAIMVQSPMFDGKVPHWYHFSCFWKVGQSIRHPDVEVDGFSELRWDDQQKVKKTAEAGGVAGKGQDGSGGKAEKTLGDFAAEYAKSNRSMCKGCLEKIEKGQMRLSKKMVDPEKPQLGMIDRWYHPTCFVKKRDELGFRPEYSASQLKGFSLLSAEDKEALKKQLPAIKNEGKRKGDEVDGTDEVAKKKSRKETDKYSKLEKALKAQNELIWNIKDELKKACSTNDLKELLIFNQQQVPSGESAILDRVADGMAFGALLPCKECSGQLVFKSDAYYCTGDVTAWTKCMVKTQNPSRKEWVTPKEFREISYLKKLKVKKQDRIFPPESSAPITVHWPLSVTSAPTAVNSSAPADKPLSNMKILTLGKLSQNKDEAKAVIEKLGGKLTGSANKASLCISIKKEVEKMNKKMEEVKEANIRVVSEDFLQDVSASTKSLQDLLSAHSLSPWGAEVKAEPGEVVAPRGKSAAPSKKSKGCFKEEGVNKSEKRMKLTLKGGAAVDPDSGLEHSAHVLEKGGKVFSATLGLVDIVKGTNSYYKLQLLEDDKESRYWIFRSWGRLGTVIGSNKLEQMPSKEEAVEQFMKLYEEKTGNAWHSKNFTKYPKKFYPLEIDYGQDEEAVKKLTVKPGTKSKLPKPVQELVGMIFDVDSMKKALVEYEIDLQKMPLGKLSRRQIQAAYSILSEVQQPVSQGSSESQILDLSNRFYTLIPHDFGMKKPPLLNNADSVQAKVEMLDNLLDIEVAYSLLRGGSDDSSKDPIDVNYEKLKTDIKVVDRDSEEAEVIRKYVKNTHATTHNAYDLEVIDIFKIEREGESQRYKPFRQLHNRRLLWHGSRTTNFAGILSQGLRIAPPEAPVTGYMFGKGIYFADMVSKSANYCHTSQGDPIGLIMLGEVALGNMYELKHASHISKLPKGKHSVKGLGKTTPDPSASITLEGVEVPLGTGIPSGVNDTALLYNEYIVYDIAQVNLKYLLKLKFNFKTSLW

inhibition at 10 µM [1]	inhibition at 30 µM [2]	inhibition at 100 µM (read-out: % Inhibition (PARP))	Compound	also measured
21%	58%	80%	C=CCOc1cccc(C(N)=O)c1 [NU1031, 3-Allyloxybenzamide]	
66%		94%	NC(=O)c1cccc2c1OCO2 [NU1034, 2,3-methylenedioxy benzamide]	IC50 [3]: 5.3 µM
18%	45%	66%	CCCCCOc1cccc(C(N)=O)c1 [NU1039, 3-pentyloxybenzamide]	
30%	50%	72%	NC(=O)c1cccc(OCCc2ccccc2)c1 [NU1048, 3-(Phenethyl)oxybenzamide]	
49%	70%	84%	CC(=O)Nc1ccc(COc2cccc(C(N)=O)c2)cc1 [NU1030, 3-(N-acetyl-4-aminobenzyloxy)benzamide]	

Continued, compound first:

Compound	inhibition at 10 µM [1]	inhibition at 30 µM [2]	inhibition at 100 µM (read-out: % Inhibition (PARP))	also measured
NC(=O)c1cccc(OCCCCCCCCCCCCn2cnc3c(N)ncnc32)c1 [NU1029, 3-(12-adenos-9-yldodecyloxy)benzamide]	26%	51%	74%	
NC(=O)c1cccc(OCc2ccccc2)c1 [NU1005, 3-benzyloxybenzamide]			76%	inhibition at 10 µM (read-out: % Inhibition (PARP), 10 μM): 34%; inhibition at 30 µM (read-out: % Inhibition (PARP), 30 μM): 60%
COc1cccc(C(N)=O)c1 [3-methoxybenzamide, reference compound]	55%	78%	89%	
Cc1nc2c(C)cccc2c(=O)[nH]1 [NU1069, 2,8-Dimethylquinazolin-4-[3H]-one]				IC50: 0.2 µM; PARP inhibitory activity in words: potent PARP inhibitors
NC(=O)c1cccc(OCCCCCn2cnc3c(N)ncnc32)c1 [NU1024, 3-(5-Adenos-9-ylpentyloxy)benzamide]	16%	42%	67%	
CCCCOc1cccc(C(N)=O)c1 [NU1038, 3-butoxybenzamide]	23%	50%	78%	
NC(=O)c1cccc(O)c1 [3-hydroxybenzamide, reference compound]	35%	59%	81%	
NC(=O)c1cccc(OCCCCCCCCn2cnc3c(N)ncnc32)c1 [NU1022, 3-(8-adenos-9-yloctyloxy)benzamide]	30%			
COc1cccc2c(=O)[nH]c(-c3ccccc3)nc12 [NU1065, 8-Methoxy-2-phenylquinazolin-4-[3H]-one]				IC50: 4.2 µM
NC(=O)c1cccc(OCc2ccc3c(c2)OCO3)c1 [NU1020, 3-(Piperonyloxy)benzamide]	51%	70%	93%	
NC(=O)c1cccc(OCc2ccc(N)cc2)c1 [NU1016, 3-(4-aminobenzyloxy)benzamide]	40%	66%	84%	
NC(=O)c1cccc(OCCCCCn2cnc3c(Cl)ncnc32)c1 [NU1023, 3-[5-(6-Chloropurin-9-yl)pentyloxy]benzamide]	26%	45%	71%	
O=c1[nH]c(-c2ccccc2)nc2c(O)cccc12 [NU1068, 8-Hydroxy-2-phenylquinazolin-4-[3H]-one]				IC50: 0.53 µM; PARP inhibitory activity in words: potent PARP inhibitors
O=c1[nH]cnc2c(O)cccc12 [NU1026, 8-hydroxyquinazolin-4-[3H]one]	78%	87%	95%	PARP inhibitory activity in words: quite strong PARP inhibitory activity; inhibition at 0.5 µM (0.5 μM): 18%; inhibition at 1 µM (1 μM (1.0 μM)): 38%; inhibition at 2 µM (2.0 μM): 54%; IC50 [3]: 2 µM
CGGAATTCCG: small synthetic single strand oligonucleotide having the palindromic sequence CGGAATTCCG (chemistry not given here) [reference compound]				activation of PARP in words: potent activator of the enzyme
